Source: patent US12115178B2, “Acylated active agents and methods of their use for the treatment of autoimmune disorders” (Flagship Pioneering Innovations V, Inc., priority 2018, dated 2024)

Legend:
[1] = Assay 1. Stability in Simulated Gastric Fluid (SGF); format: in vitro ADME; conditions: SGF pH 1.6 with pepsin, 1 μM, 37° C.
Experimental: Assay 1. Stability of acylated active agents in Simulated Gastric Fluid (SGF). This assay was used to assess the stability of an acylated active agent in a stomach.
Medium was prepared by dissolving 2 g of sodium chloride in 0.6 L in ultrapure water (MilliQ®, Millipore Sigma, Darmstadt, Germany). The pH was adjusted to 1.6 with 1N hydrochloric acid, and the volume was then adjusted to 1 L with purified water.
60 mg FaSSIF powder (Biorelevant™, London, UK) were dissolved in 500 mL buffer (above). Pepsin was added (0.1 mg/mL) (Millipore Sigma, Darmstadt, Germany), and the solution was stirred. The resulting SGF media were used fresh for each experiment.
Test compounds were dissolved in DMSO stock to 1 mM. An aliquot of the DMSO stock solution was removed and diluted in the SGF Media in 15 mL falcon tubes to generate a total compound concentration of 1 μM. A 1 mL aliquot was immediately removed and diluted once with 1 volume of acetonitrile for T0 timepoint. The mixture was sealed and mixed at 37° C. in an incubator. Aliquots (1 mL) were removed at regular intervals and immediately quenched by the addition of 1 volume of acetonitrile. The resulting samples were analyzed by LC/MS to determine degradation rates in SGF.

[2] = Assay 2. Stability in Simulated Intestinal Fluid (SIF); format: in vitro ADME; conditions: SIF pH 6.7 with pancreatin, 1 μM, 37° C.
Experimental: Assay 2. Stability of acylated active agents in Simulated Intestinal Fluid (SIF). This assay was used to assess the stability of an acylated active agent in a small intestine. Phosphate buffer was prepared by dissolving 0.42 g of sodium hydroxide pellets and 3.95 g of monobasic sodium phosphate monohydrate and 6.19 g of sodium chloride in ultrapure water (MilliQ®, Millipore Sigma, Darmstadt, Germany). The pH was adjusted to 6.7 using aq. HCl and aq. NaOH, as necessary, and the solution was diluted with ultrapure water to produce 1 L of the pH 6.7 buffer. 112 mg FaSSIF powder (Biorelevant™, London, UK) was dissolved in 50 mL of the pH 6.7 buffer. 2 to 3 mL of the resulting solution were then added to 500 mg pancreatin (Millipore Sigma, Darmstadt, Germany). The resulting mixture was agitated by finger tapping the vessel containing the mixture until milky suspension formed. At this time, the remainder of the 50 mL FaSSiF/pH 6.7 buffer solution was added. The resulting suspension was flipped upside down 10 times to produce SIF, which was used fresh. Test compounds were dissolved in DMSO stock to 1 mM. An aliquot of the DMSO stock solution was removed and diluted in the SIF media in 15 mL falcon tubes to produce a mixture with a tested compound concentration of 1 μM. A 1 mL aliquot was immediately removed and diluted once with 1 volume of acetonitrile for T0 timepoint. The mixture was sealed and agitated at 37° C. in an incubator. Aliquots (1 mL) were removed at regular intervals and immediately quenched by the addition of 1 volume of acetonitrile. The resulting samples were analyzed by LC/MS to determine degradation rates.

Row | Compound | Assay 1 (SGF) (% Remaining @ 1 hour) [1] | Assay 2 (SIF) (% @ Remaining 4 hours) [2]
1 | CCC(=O)O[C@@H]1[C@@H](OC(=O)CC)[C@H](OC(=O)CCc2c[nH]c3ccccc23)OC[C@H]1OC(=O)CC [Compound 132, (2S,3R,4S,5R)-3,4,5-tris(propanoyloxy)oxan-2-yl 3-(1H-indol-3-yl)propanoate] | C (>75% of the tested compound remaining) | 
2 | CCCC(=O)Nc1ccc(O[C@@H]2OC[C@@H](OC(=O)CCC)[C@H](OC(=O)CCC)[C@H]2OC(=O)CCC)c(C(=O)O)c1 [Compound 188, 5-butanamido-2-{[(2S,3R,4S,5R)-3,4,5-tris(butanoyloxy)oxan-2-yl]oxy}benzoic acid] |  | A (<25% of the tested compound remaining)
3 | CCCC(=O)O[C@H]1[C@@H](Oc2ccccc2C(=O)O)OC[C@@H](OC(=O)CCC)[C@H]1OC(=O)CCC [Compound 42, 2-(((3R,4R,5R)-3,4,5-tris(butyryloxy)tetrahydro-2H-pyran-2-yl)oxy)benzoic acid] |  | C (>75% of the tested compound remaining)
4 | CCC(=O)Oc1cc(OC(=O)CC)c2c(=O)c(OC(=O)CC)c(-c3ccc(OC(=O)CC)c(OC(=O)CC)c3)oc2c1 [Compound 174, [4-[4-oxo-3,5,7-tri(propanoyloxy)chromen-2-yl]-2-propanoyloxy-phenyl] propanoate] | C (>75% of the tested compound remaining) | 
5 | CCC(=O)O[C@H]1[C@H](OC(=O)CC)[C@H](OC(=O)/C=C/c2c[nH]c3ccccc23)O[C@@H](C)[C@H]1OC(=O)CC [Compound 116, (2S,3S,4R,5R,6S)-6-methyl-3,4,5-tris(propanoyloxy)oxan-2-yl (2E)-3-(1H-indol-3-yl)prop-2-enoate] | C (>75% of the tested compound remaining) | 
6 | CCC(=O)O[C@@H]1[C@@H](OC(=O)CC)[C@@H](OC(=O)CCc2c[nH]c3ccccc23)OC[C@H]1OC(=O)CC [Compound 75, (2R,3R,4S,5R)-3,4,5-tris(propanoyloxy)oxan-2-yl 3-(1H-indol-3-yl)propanoate] | C (>75% of the tested compound remaining) | 
7 | CCCC(=O)O[C@H]1O[C@@H](C)[C@H](OC(=O)CCC)[C@@H](OC(=O)CCC)[C@H]1OC(=O)CCC [Compound 119, (2R,3R,4R,5S,6S)-3,4,5-tris(butanoyloxy)-6-methyloxan-2-yl butanoate] |  | A (<25% of the tested compound remaining)
8 | CCCC(=O)O[C@@H]1O[C@@H](C)[C@H](OC(=O)CCC)[C@@H](OC(=O)CCC)[C@H]1OC(=O)CCC [Compound 120, (2S,3R,4R,5S,6S)-3,4,5-tris(butanoyloxy)-6-methyloxan-2-yl butanoate] |  | A (<25% of the tested compound remaining)
9 | CC(=O)Oc1cc(OC(C)=O)c2c(=O)c(OC(C)=O)c(-c3ccc(OC(C)=O)c(OC(C)=O)c3)oc2c1 [Compound 182, [2-acetoxy-4-(3,5,7-triacetoxy-4-oxo-chromen-2-yl)phenyl] acetate] |  | A (<25% of the tested compound remaining)
10 | C[C@@H]1O[C@@H](OC(=O)Cc2c[nH]c3ccccc23)[C@H](OC(=O)Cc2c[nH]c3ccccc23)[C@H](OC(=O)Cc2c[nH]c3ccccc23)[C@H]1OC(=O)Cc1c[nH]c2ccccc12 [Compound 122, (2S,3R,4R,5S,6S)-3,4,5-tris({[2-(1H-indol-3-yl)acetyl]oxy})-6-methyloxan-2-yl 2-(1H-indol-3-yl)acetate] |  | A (<25% of the tested compound remaining)
11 | CCC(=O)O[C@@H]1OC[C@H](OC(=O)CC)[C@H](OC(=O)CC)[C@H]1OC(=O)CC [Compound 128, (2S,3R,4S,5S)-3,4,5-tris(propanoyloxy)oxan-2-yl propanoate] | C (>75% of the tested compound remaining) | 
12 | CC(=O)Oc1cc(OC(C)=O)c2c(=O)c(OC(C)=O)c(-c3cc(OC(C)=O)c(OC(C)=O)c(OC(C)=O)c3)oc2c1 [Compound 11, [3,5-diacetoxy-4-oxo-2-(3,4,5-triacetoxyphenyl)chromen-7-yl] acetate] | C (>75% of the tested compound remaining) | 
13 | CCCC(=O)O[C@@H]1[C@@H](OC(=O)CCC)[C@H](C)O[C@@H](O)[C@@H]1OC(=O)CCC [Compound 141, (2S,3S,4R,5R)-4,5-bis(butanoyloxy)-6-hydroxy-2-methyloxan-3-yl butanoate] |  | C (>75% of the tested compound remaining)
14 | CC(=O)Oc1ccc([C@@H]2CC(=O)c3c(OC(C)=O)cc(OC(C)=O)cc3O2)cc1 [Compound 176, (S)-2-(4-acetoxyphenyl)-4-oxochromane-5,7-diyl diacetate] |  | A (<25% of the tested compound remaining)
15 | CCCC(=O)Oc1ccc([C@@H]2CC(=O)c3c(OC(=O)CCC)cc(OC(=O)CCC)cc3O2)cc1 [Compound 175, (S)-2-(4-(butyryloxy)phenyl)-4-oxochromane-5,7-diyl dibutyrate] |  | A (<25% of the tested compound remaining)
16 | CCCC(=O)OCC1(OC(=O)CCC)OC[C@@H](OC(=O)CCC)[C@H](OC(=O)CCC)[C@@H]1OC(=O)CCC (stereo partly drawn) [Compound 131, [(3S,4S,5R)-2,3,4,5-tetrakis(butanoyloxy)oxan-2-yl]methyl butanoate] |  | A (<25% of the tested compound remaining)
17 | CC(=O)Oc1ccc(-c2oc3cc(OC(C)=O)cc(OC(C)=O)c3c(=O)c2OC(C)=O)cc1 [Compound 177, [4-(3,5,7-triacetoxy-4-oxo-chromen-2-yl)phenyl] acetate] | C (>75% of the tested compound remaining) | 
18 | CC(=O)Oc1cc(OC(C)=O)c2c(=O)c(OC(C)=O)c(-c3ccc(OC(C)=O)c(OC(C)=O)c3)oc2c1 [Compound 4, [2-acetoxy-4-(3,5,7-triacetoxy-4-oxo-chromen-2-yl)phenyl] acetate] | C (>75% of the tested compound remaining) | 
19 | CCCC(=O)OC[C@H]1O[C@@H](Oc2ccccc2C(=O)O)[C@H](OC(=O)CCC)[C@@H](OC(=O)CCC)[C@@H]1OC(=O)CCC [Compound 28, 2-(((2S,3R,4S,5R,6R)-3,4,5-tris(butyryloxy)-6-((butyryloxy)methyl)tetrahydro-2H-pyran-2-yl)oxy)benzoic acid] | C (>75% of the tested compound remaining) | 
20 | CCCC(=O)O[C@@H]1[C@@H](OC(=O)CCC)[C@@H](Oc2ccc(N)cc2C(=O)O)OC[C@H]1OC(=O)CCC [Compound 184, 5-amino-2-[(2R,3R,4S,5R)-3,4,5-tri(butanoyloxy)tetrahydropyran-2-yl]oxy-benzoic acid] |  | B (25-75% of the tested compound remaining)
21 | CC(=O)Oc1ccc2c(c1)oc(=O)c1cc(OC(C)=O)c(OC(C)=O)cc12 [Compound 203, 6-oxo-6H-benzo[c]chromene-3,8,9-triyl triacetate] |  | B (25-75% of the tested compound remaining)
22 | C[C@@H]1O[C@H](OC(=O)Cc2c[nH]c3ccccc23)[C@H](OC(=O)Cc2c[nH]c3ccccc23)[C@H](OC(=O)Cc2c[nH]c3ccccc23)[C@H]1OC(=O)Cc1c[nH]c2ccccc12 [Compound 121, (2R,3R,4R,5S,6S)-3,4,5-tris({[2-(1H-indol-3-yl)acetyl]oxy})-6-methyloxan-2-yl 2-(1H-indol-3-yl)acetate] |  | A (<25% of the tested compound remaining)
23 | CCCC(=O)Oc1ccc(/N=N/c2ccc(OC(=O)CCC)c(C(=O)O)c2)cc1C(=O)O [Compound 17, 2-butanoyloxy-5-[(E)-(4-butanoyloxy-3-carboxy-phenyl)azo]benzoic acid] |  | A (<25% of the tested compound remaining)
24 | CC(=O)Oc1ccc(-c2oc3cc(OC(C)=O)cc(OC(C)=O)c3c(=O)c2OC(C)=O)cc1 [Compound 8, [4-(3,5,7-triacetoxy-4-oxo-chromen-2-yl)phenyl] acetate] |  | A (<25% of the tested compound remaining)
25 | CCCC(=O)O[C@H]1OC[C@@H](OC(=O)CCC)[C@H](OC(=O)CCC)[C@H]1OC(=O)CCC [Compound 159, (2R,3R,4S,5R)-3,4,5-tris(butanoyloxy)oxan-2-yl butanoate] |  | C (>75% of the tested compound remaining)
